SMILES strings stand for the structures. Activity calls are given as the source filed them. The calls are words filed in the database; no cut-off is given here.

One assay concerns A2780. Put plainly: Cytotoxicity against human A2780 cells assessed as reduction in cell viability at 10 uM by MTT assay. Format: functional, cell-based.
Regarding `CCC/C=C/CCC(=O)[C@]1(O)C(=O)N[C@@H](C)[C@@H]1O`, the result was inactive.
Consider `C/C=C/C=C\[C@@H](O)[C@H]1CCC(=O)O1`, for which the outcome was inactive.
Consider `CC[C@H](C)[C@H]1NC(=O)[C@@H](CC(C)C)NC(=O)CNC(=O)CCNC(=O)[C@@H](Cc2c[nH]c3ccccc23)NC(=O)[C@H](C(C)C)NC(=O)[C@@H]([C@@H](C)CC)NC1=O`, for which the result was inactive.
Take `O=C1OC(O)C=C1O` (stereo not given): the result was inactive.
The same measure, in the same setting: with `CS[C@@]1(Cc2c[nH]c3ccccc23)NC(=O)[C@@](SC)(C(C)O)NC1=O` (stereo not given in full) the entry was “inactive”; with `CC(C)C[C@H]1NC(=O)CNC(=O)CCNC(=O)[C@@H](Cc2c[nH]c3ccccc23)NC(=O)[C@H](C(C)C)NC(=O)[C@H](C(C)C)NC(=O)[C@H](C(C)C)NC1=O`, “inactive”.

The next assay has as its system A2780. Put plainly: Cytotoxicity against human A2780 cells assessed as reduction in cell viability by MTT assay. Format: functional, cell-based.
For the molecule `C[C@@H](O)[C@@]12SS[C@]3(C(=O)N1C)[C@@H](O)C1(C45c6ccccc6N[C@@H]4N4C(=O)[C@]6([C@@H](C)O)SS[C@]4(C(=O)N6C)[C@H]5O)c4ccccc4N[C@@H]1N3C2=O` (stereo not given in full), the IC50 amounted to 3.5 µM.

The test system of another assay is L5178Y. The assay is described as follows: Cytotoxicity against mouse L5178Y cells assessed as reduction in cell viability by MTT assay. The class given is functional, cell-based.
Take `CC[C@H](C)[C@H]1NC(=O)[C@@H](CC(C)C)NC(=O)CNC(=O)CCNC(=O)[C@@H](Cc2c[nH]c3ccccc23)NC(=O)[C@H](C(C)C)NC(=O)[C@H](C(C)C)NC1=O`: the 50% inhibitory concentration (IC50) worked out at 4.1 µM.
Still for that read-out and setting: the value for `C[C@@H](O)[C@@]12SS[C@]3(C(=O)N1C)[C@@H](O)C1(C45c6ccccc6N[C@@H]4N4C(=O)[C@]6([C@@H](C)O)SS[C@]4(C(=O)N6C)[C@H]5O)c4ccccc4N[C@@H]1N3C2=O` (stereo not given in full) was 0.1 µM.

The next assay deals with L5178Y. The assay is described as follows: Cytotoxicity against mouse L5178Y cells assessed as reduction in cell viability at 10 uM by MTT assay. The class given is functional, cell-based.
As for `CCC/C=C/CCC(=O)[C@]1(O)C(=O)N[C@@H](C)[C@@H]1O`, the outcome was inactive.
The same measure, in the same setting: with `C/C=C/C=C\[C@@H](O)[C@H]1CCC(=O)O1` the entry was “inactive”; with `CC[C@H](C)[C@H]1NC(=O)[C@@H](CC(C)C)NC(=O)CNC(=O)CCNC(=O)[C@@H](Cc2c[nH]c3ccccc23)NC(=O)[C@H](C(C)C)NC(=O)[C@@H]([C@@H](C)CC)NC1=O`, “inactive”.
In the case of `O=C1OC(O)C=C1O` (stereo not given), the outcome was inactive.
Regarding `CS[C@@]1(Cc2c[nH]c3ccccc23)NC(=O)[C@@](SC)(C(C)O)NC1=O` (stereo not given in full), the outcome was inactive.
On the same count and under the same terms, with `CC(C)C[C@H]1NC(=O)CNC(=O)CCNC(=O)[C@@H](Cc2c[nH]c3ccccc23)NC(=O)[C@H](C(C)C)NC(=O)[C@H](C(C)C)NC(=O)[C@H](C(C)C)NC1=O` the entry was “inactive”.

For the origin of these results see ChEMBL document CHEMBL4385649, “Cyclic heptapeptides from the soil-derived fungus Clonostachys rosea” (Bioorg Med Chem, 2019).
